Data on 1 compound can be found in US12472261B2, “Conjugated inhibitors of DNA damage response” (ProLynx LLC, priority 2019, dated 2025).

For one assay, the system named is DLD-1 BRCA2^wt/wt. The assay can be described thus: Efficacy in murine DLD-1 BRCA2^wt/wt xenografts (Example 10). The note with it: QD oral.
The test system of another assay is DLD-1 BRCA2^−/−. The note with it: daily TLZ×21 days.
Assay [1] relates to MX-1 human triple-negative breast carcinoma cell line. The assay is described as follows: Efficacy of PEG-talazoparib conjugates in murine MX-1 xenografts (Example 9). The assay is classed as in vivo, mice. The note with it: MX-1 tumors.
Procedure: The MX-1 human triple-negative breast carcinoma cell line was obtained from Charles River Labs (Frederick, Md).
Tumor xenografts were established by subcutaneous injection with MX-1 tumor cells (2×10^6 cells in 100 μl of serum free medium mixed 1:1 with Matrigel) into the right flank of female NCr nude mice. When tumor xenografts reached 1000-1500 mm^3 in donor mice, they were resected, divided into even-size fragments (approximately 2.5×2.5 mm), embedded in Matrigel and re-implanted via subcutaneous trocar implantation in receiver mice.
Solutions of talazoparib (50 μM) were prepared as by adding a solution of talazoparib in DMSO (55 mM, 454 μL) to the oral dosing buffer consisting of 10% dimethylacetamide, 6% solutol, and 84% PBS. Talazaparib content was determined by ε310nm=9872 M^−1cm^−1 in 10% dimethylacetamide, 6% solutol, and 84% PBS Solutions were delivered p.o. at 8.5-19 mL/kg to deliver 0.4 to 0.9 μmol/kg talazoparib. Solutions of PEG-talazoparib (Example 1, R^1=MeSO2, R^7=MeO(CH2)2) containing up to 8 mM talazoparib (2 mM PEG˜[talazoparib]4) were prepared in isotonic acetate (pH 5), sterile filtered through a 0.2 μM syringe filter, and TLZ content was determined by ε310nm=9872 M^−1cm^−1 in 10% dimethylacetamide, 6% solutol, and 84% PBS. Doses were delivered IP at ˜15 mL/kg mL/kg to deliver 15-120 μmol drug/kg.
Mice bearing MX-1 tumors were dosed when tumors reached ˜100-300 mm^3 in size. Dosing solutions were administered as indicated above. Tumor volumes (caliper measurement: 0.5×(length×width)) and body weights were measured twice weekly. […] Mice bearing large tumors were dosed when tumors reached 1000-3000 mm^3.
Progressive disease (PD) was classified as PD1 or PD2 based on the tumor growth delay (TGD) values calculated as the number of days to event. For each mouse, TGD was calculated by dividing the time to event by the median time to event in the control group. […] Median times to event were estimated based on the Kaplan-Meier event-free survival distribution.
The test system of assay [2] is BRCA1-deficient MX-1 tumors. The assay is classed as in vivo.
The test system of the next assay is KT-10 tumors. The note with it: KT-10, 0.1 mg/kg TLZ daily dosing; reference (26); cited from earlier work.

For the compound `Cn1ncnc1[C@H]1c2n[nH]c(=O)c3cc(F)cc(c23)N[C@@H]1c1ccc(F)cc1` [TLZ, talazoparib], in the assay on DLD-1 BRCA2^wt/wt, the “median EFS of treated animals vs controls” value is given as “no increase” and the tumor response result is given as “resistant”. For the same compound, the “increase in median event free survival” value in the assay on DLD-1 BRCA2^−/− was determined as 11 fold. For the same compound, in assay [1] (dose 0.4 μmol/kg), the “MCR (number of mice, Houghton analysis)” value was found to be 1 and the “PD2 (number of mice, Houghton analysis)” value is reported as 4. Moreover, in assay [1] (dose 0.7 μmol/kg), the “CR (number of mice, Houghton analysis)” value worked out at 2; the “MCR (number of mice, Houghton analysis)” value is given as 1; the “PR (number of mice, Houghton analysis)” value turned out to be 2. Also, in assay [2] (MX-1, daily oral 0.4 μmol/kg (0.15 mg/kg)), the “duration of growth suppression” value was roughly 3 wks. For the same compound, the “median EFS” value in assay [2] (MX-1, daily oral 0.4 μmol/kg, event = doubling of initial tumor volume) stood at 35 days. Besides, the “response of KT-10 to daily TLZ” value with KT-10 tumors is given as “maintained CRs over 12 wks”.
